Assay results: patent US20250263404A1, “AMINOPYRIDINES AS ACTIVATORS OF PI3 KINASE” (UCL Business Ltd, priority 2021, published 2025)

What was measured:
[1] = system: PI3Kα-WT MEFs; test: Cell cycle progression by EdU incorporation in MEFs; type: cell-based, mouse
Procedure: Click-IT EdU strategy was used according to manufacturer instructions (Sigma-Aldrich #BCK-FC488-50). Briefly, MEFs were seeded at 50,000 cells per well in 6-well plates in DMEM supplemented with 10% FBS and 1% P/S, and allowed to attach overnight. The next day, cells were serum-starved for 5 h prior to compound addition in fresh serum-free DMEM. At different time points, cells were pulsed for 3 h with 10 μM EdU, followed by collection by trypsinization and fixation with 3.7% FA in PBS for 15 min in the dark, washed in 3% BSA and permeabilized in 1× saponin-based permeabilization buffer for 20 min in the dark. EdU was then detected using the FAM-azide assay cocktail for 30 min in the dark. Cells were washed twice in 1× saponin-based permeabilization buffer followed by analysed with flow cytometer (Novocyte Advanteon flow cytometer, Agilent).

[2] = target: PI3Kα (Homo sapiens, UniProt P42336); test: FRET membrane binding assay, PI3Kα; type: biochemical; parameters: Full-length p110α was expressed in a complex with full-length p85α (for biochemistry and HDX-MS); 6xHis followed by TEV protease site (N); made in house; host or cells: Spodoptera frugiperda Sf9 (baculovirus co-infection; plasmids OP831 and OP809); settings: compared with pY
Chain of PI3Kα (P42336 whole entry): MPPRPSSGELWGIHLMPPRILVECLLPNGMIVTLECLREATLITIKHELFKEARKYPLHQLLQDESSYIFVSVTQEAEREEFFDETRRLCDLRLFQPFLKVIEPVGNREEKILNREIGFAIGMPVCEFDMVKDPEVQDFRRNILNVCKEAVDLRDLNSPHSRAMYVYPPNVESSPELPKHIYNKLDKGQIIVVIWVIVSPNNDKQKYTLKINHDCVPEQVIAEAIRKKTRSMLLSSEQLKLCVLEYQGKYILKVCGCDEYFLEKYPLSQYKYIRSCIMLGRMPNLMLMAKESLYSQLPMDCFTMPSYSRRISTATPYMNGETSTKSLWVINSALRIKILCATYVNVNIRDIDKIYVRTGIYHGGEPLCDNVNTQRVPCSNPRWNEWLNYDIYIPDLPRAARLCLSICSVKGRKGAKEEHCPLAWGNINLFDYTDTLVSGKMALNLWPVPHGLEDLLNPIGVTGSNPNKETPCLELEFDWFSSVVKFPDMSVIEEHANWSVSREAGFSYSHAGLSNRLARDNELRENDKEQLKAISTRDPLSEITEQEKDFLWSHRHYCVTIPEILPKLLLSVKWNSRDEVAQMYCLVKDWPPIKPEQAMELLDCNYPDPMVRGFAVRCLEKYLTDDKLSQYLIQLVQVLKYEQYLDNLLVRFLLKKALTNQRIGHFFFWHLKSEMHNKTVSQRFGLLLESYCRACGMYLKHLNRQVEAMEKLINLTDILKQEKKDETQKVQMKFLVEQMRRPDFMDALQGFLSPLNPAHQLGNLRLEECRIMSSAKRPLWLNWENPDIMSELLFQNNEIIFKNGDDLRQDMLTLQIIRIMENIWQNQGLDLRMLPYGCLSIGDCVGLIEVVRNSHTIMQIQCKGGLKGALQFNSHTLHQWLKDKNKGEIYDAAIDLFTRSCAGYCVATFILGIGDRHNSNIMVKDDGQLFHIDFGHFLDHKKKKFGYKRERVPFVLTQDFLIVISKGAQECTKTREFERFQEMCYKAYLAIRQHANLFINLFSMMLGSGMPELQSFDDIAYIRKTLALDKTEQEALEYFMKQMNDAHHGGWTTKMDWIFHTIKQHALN
Chain of PI3Kα (P27986 whole entry partner): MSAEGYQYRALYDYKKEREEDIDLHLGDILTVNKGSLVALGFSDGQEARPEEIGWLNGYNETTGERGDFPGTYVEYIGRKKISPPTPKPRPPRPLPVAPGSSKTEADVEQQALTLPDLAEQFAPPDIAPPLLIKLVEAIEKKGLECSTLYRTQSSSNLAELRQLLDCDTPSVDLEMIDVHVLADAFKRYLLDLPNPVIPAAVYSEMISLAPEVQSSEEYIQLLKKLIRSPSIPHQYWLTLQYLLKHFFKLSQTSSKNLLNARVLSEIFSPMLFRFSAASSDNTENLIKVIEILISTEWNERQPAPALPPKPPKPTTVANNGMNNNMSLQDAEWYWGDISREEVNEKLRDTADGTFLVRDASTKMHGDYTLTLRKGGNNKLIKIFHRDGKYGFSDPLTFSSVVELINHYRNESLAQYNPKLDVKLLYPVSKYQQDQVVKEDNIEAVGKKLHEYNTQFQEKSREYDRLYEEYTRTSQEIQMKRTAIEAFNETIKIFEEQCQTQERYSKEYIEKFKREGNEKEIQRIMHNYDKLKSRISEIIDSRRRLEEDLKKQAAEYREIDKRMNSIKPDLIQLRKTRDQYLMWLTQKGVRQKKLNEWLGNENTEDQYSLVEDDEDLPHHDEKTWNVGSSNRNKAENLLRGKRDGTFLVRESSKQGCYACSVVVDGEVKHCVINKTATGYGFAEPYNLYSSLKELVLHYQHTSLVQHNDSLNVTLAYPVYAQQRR
Procedure: Membrane binding assays were performed as previously published (Burke, J. E. et al. Proc Natl Acad Sci USA 109, 15259-15264 (2012)). Briefly, liposomes were prepared with 5% (w/v) brain PtdIns(4,5)P2, 20% brain phosphatidylserine, 35% brain phosphatidylethanolamine, 15% brain phosphatidylcholine, 10% cholesterol, 5% sphingomyelin, and 10% dansyl-phosphatidylserine (Avanti Polar Lipids). PI3Kα was used at a final concentration of 0.5 μM. Protein solutions were preincubated with 10 μM pY or compounds for 10 min before addition of liposomes. Liposomes were used at a final concentration of 50 μg/ml. The reaction mixture contained 5 μl enzyme, 2 μl compound and 3 μl liposomes, all diluted in 30 mM HEPES, 50 mM NaCl, pH 7.4. The reaction was allowed to proceed for 10 min at room temperature in 384 black-polystyrene plates (Corning #3544) on an orbital shaker at 200 rpm. FRET signals were measured using PHERAStar (BMG) with a 280 nm excitation filter with 350 nm and 520 nm emission filters to measure Dansyl-PS FRET emissions, respectively. FRET signal shown as I-I0, where I is the intensity at 520 nm, and 10 is the intensity at 520 nm for the solution in the absence of protein.

[3] = system: PI3Kα-WT and PI3Kα-KO MEFs; test: Mass spectrometry-based phosphoproteomics in MEFs; type: cell-based, mouse; settings: for differentially phosphorylated peptides/sites: PI3Kα-WT MEFs
Procedure: The inventors next investigated the impact of 1938 on cell signalling in an unbiased manner using phosphoproteomics. […] The inventors quantified 10,611 phosphosites from 3,093 proteins of which 9100, 1420 and 91 were pSer, pThr and pTyr residues, respectively (FIG. 16/Extended Data FIG. 8a). […] Compared to vehicle-treated cells, insulin treatment of PI3Kα-WT MEFs induced differential phosphorylation of 11 and 18 sites at 15 min and 4 h, respectively (FIG. 16/Extended Data FIG. 8c). […] Furthermore, approximately half of the 1938-controlled phosphosites have been previously reported (in PhosphoSitePlus) to be regulated by insulin, IGF-1, PI3K inhibition or AKT inhibition, with some linked to regulation by mTOR or PDK1 (FIG. 3gi,ii).
PI3Kα-WT and PI3Kα-KO MEFs, grown in 15 cm dishes, were serum-starved overnight in DMEM with 1% penicillin-streptomycin and stimulated by the addition of 0.05% DMSO, […] 1938 in final 0.05% DMSO or 100 nM insulin (Sigma, 15016) for 15 min or 4 h. Cells were lysed in […] urea lysis buffer [50 mM triethylammonium bicarbonate, 8 M urea, cOmplete™, EDTA-free protease inhibitor cocktail (1:50 dilution) (Roche, 11873580001), 1 PhosSTOP tablet (Roche, 4906845001), 1 mM sodium orthovanadate] and lysates sonicated until clear for ˜10 min with cooling breaks on ice. Protein concentration was measured using a BCA protein assay (Pierce #23227). 300 μg of protein was reduced with 5 mM Tris(2-carboxyethyl)phosphine hydrochloride (Sigma, C4706) at 37° C. for 20 min and alkylated using 10 mM 2-chloroacetamide (Sigma, 22790) for 20 min at room temperature in the dark. Proteins were digested with LysC for 3.5 h at 30° C. […] Fifty percent of each sample was analysed as 10 μl injections. […] Precursor ions were measured in a data-dependent mode in the orbitrap analyser at a resolution of 70,000 and a target value of 3e6 ions. The ten most intense ions from each MS1 scan were isolated, fragmented in the HCD cell, and measured in the Orbitrap at a resolution of 17,500. […]

- binding of PI3Kα to lipid membranes, maximum level [2]: about half of that induced by pY
Structure (SMILES): CCN1CCN(c2ccc(Nc3cc(Nc4cccc5c4N(C(C)=O)CC5)ccn3)cc2)CC1 [Example 1938]
- cell cycle progression (EdU incorporation) [1]: induced cell cycle progression
- signalling impact in PI3Kα-KO MEFs ([3]; PI3Kα-KO MEFs): little signalling impact
- differentially phosphorylated peptides/sites ([3]; 15 min treatment): 27
- differentially phosphorylated peptides/sites ([3]; 4 h treatment): 50
